# Reference: patent US11697648B2, “Fused pyrimidine pyridinone compounds as JAK inhibitors” (THERAVANCE BIOPHARMA R&D IP, LLC, priority 2019, dated 2023)
# Columns and labels:
# JAK1 = JAK1 (Homo sapiens (Human), UniProt P23458); experiment: Biochemical JAK1 kinase assay (LanthaScreen)
# Procedure, shortened: (§1)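 GST-JAK + GFP-STAT1 peptide, HEPES pH 7.5/MgCl2/EGTA/Brij-35 buffer; cpd preincubation 1 h RT; ATP start, 1 h RT; stop with 10 mM EDTA + 2 nM Tb-anti-pSTAT1; TR-FRET 520/495. 4-parameter IC50 → pKi (Cheng-Prusoff).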
# JAK2 = JAK2 (Homo sapiens (Human), UniProt O60674); experiment: Biochemical JAK2 kinase assay (LanthaScreen)
# Chain of JAK2 (O60674 whole entry): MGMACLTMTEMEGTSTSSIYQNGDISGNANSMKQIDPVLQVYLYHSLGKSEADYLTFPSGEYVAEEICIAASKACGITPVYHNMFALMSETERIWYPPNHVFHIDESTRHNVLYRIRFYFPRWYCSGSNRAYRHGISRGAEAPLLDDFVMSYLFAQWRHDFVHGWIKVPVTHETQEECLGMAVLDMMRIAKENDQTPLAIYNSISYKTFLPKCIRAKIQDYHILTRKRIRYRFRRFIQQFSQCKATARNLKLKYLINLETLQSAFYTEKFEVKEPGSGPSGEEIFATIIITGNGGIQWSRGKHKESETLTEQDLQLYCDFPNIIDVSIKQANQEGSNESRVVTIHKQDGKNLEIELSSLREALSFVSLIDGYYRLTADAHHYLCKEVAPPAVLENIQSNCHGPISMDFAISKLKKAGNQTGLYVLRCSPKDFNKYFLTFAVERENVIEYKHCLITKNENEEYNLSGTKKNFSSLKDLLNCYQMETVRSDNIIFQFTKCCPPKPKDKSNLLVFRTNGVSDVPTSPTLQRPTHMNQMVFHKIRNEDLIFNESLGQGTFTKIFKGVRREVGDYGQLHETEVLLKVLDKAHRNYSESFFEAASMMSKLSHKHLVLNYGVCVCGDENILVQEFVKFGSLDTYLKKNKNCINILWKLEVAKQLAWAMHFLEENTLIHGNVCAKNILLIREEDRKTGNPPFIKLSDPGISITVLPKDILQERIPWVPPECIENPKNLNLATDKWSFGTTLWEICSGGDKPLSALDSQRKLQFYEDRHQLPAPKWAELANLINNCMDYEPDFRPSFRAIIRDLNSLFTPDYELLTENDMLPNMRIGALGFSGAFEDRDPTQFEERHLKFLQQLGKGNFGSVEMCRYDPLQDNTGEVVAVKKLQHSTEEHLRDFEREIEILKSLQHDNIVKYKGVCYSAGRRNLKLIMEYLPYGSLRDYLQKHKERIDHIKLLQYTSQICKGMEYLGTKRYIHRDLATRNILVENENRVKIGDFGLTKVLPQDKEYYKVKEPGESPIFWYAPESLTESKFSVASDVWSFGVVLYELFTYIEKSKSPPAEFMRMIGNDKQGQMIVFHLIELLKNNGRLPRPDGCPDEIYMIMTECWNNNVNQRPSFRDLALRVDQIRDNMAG
# Procedure, shortened: as §1
# JAK3 = JAK3 (Homo sapiens (Human), UniProt P52333); experiment: Biochemical JAK3 kinase assay (LanthaScreen); conditions: for JAK3 (pKi)-JAK1 (pKi): selectivity JAK3 over JAK1, difference of pKi
# Chain of JAK3 (P52333 whole entry): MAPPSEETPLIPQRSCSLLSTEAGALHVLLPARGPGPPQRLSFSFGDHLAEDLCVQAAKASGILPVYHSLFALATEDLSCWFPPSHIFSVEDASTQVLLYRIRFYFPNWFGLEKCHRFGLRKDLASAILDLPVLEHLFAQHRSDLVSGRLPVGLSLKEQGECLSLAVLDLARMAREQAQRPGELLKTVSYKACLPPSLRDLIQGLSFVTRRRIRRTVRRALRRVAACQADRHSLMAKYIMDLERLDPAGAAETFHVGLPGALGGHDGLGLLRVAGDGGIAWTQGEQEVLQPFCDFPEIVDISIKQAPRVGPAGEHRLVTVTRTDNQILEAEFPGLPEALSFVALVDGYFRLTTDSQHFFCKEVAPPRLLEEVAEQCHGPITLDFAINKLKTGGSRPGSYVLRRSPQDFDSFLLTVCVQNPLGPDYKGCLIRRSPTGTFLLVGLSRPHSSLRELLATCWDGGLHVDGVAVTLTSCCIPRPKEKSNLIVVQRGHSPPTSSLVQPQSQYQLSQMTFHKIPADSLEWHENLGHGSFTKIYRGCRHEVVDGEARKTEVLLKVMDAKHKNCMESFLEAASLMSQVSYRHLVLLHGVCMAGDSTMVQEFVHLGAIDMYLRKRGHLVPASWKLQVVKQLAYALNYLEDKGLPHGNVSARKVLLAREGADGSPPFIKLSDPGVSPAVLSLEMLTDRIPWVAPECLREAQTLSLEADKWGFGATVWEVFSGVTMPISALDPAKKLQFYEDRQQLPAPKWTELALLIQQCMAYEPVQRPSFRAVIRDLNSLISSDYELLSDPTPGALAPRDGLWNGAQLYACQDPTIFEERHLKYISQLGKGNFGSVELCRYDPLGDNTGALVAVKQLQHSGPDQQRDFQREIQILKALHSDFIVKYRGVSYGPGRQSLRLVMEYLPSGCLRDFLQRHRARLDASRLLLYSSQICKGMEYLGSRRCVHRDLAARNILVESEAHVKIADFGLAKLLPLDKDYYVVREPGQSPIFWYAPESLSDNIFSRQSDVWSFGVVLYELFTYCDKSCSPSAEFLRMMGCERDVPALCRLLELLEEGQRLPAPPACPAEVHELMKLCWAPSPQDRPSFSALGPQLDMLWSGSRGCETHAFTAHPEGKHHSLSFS
# Procedure, shortened: as §1
# Tyk2 = Tyk2 (Homo sapiens (Human), UniProt P29597); experiment: Biochemical Tyk2 kinase assay (LanthaScreen)
# Chain of Tyk2 (P29597 whole entry): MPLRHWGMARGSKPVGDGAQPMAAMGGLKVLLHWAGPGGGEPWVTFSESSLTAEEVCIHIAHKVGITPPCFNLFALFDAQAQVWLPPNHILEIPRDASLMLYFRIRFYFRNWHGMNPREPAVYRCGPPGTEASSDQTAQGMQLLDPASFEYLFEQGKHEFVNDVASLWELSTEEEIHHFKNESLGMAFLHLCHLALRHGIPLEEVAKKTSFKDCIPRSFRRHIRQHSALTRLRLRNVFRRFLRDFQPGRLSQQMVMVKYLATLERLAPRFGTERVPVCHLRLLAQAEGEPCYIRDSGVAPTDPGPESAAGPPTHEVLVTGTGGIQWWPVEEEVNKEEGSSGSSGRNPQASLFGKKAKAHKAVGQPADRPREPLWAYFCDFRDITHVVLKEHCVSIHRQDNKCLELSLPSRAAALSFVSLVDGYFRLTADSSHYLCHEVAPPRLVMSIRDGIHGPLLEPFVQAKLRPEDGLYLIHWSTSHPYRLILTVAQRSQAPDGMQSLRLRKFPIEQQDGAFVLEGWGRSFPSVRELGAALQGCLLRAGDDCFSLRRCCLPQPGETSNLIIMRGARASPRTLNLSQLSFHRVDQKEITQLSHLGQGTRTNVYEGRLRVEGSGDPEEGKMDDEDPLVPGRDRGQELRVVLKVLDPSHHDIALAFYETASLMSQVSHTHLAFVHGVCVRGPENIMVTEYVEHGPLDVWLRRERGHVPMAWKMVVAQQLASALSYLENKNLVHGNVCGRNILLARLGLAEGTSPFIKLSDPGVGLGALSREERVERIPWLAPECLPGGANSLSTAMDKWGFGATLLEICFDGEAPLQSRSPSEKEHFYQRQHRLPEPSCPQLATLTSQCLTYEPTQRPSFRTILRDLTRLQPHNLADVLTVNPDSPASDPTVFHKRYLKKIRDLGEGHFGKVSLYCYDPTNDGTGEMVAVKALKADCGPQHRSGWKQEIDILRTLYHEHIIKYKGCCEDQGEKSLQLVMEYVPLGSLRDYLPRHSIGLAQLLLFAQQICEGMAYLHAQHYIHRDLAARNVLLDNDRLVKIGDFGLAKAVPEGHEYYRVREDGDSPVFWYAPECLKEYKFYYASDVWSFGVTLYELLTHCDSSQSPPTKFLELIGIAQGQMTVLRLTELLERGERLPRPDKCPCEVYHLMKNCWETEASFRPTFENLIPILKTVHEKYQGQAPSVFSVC
# Procedure, shortened: as §1
# [1] = tested on: IL-2 stimulated STAT5 phosphorylation in Tall-1 human T cell line (JAK3); experiment: Cellular JAK3 potency assay: inhibition of IL-2 stimulated pSTAT5 in Tall-1 T cells; type: cell-based; conditions: IL-2 stimulated pSTAT5, Tall-1 T cells
# Procedure, shortened: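 AlphaLISA SureFire Ultra measures STAT5 Tyr694/699 phosphorylation in lysed Tall-1 human T cells. Cells were exposed to compound for 1 h at 37 °C before a 30 min IL-2 challenge (300 ng/ml final). Values are pIC50 means with standard deviation from signal-versus-concentration curves.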
# Caco-2 cell monolayers = experiment: Caco-2 permeation assay; type: in vitro ADME; conditions: 5 μM, A-B direction, with Verapamil (25 μM)
# Description: Assay 4: Caco-2 Permeation Assay
# The Caco-2 permeation assay was performed to model the ability of test compounds to pass through the intestine and get into the blood stream after oral administration. The rate at which test compounds in solution permeate a cell monolayer designed to mimic the tight junction of human small intestinal monolayers was determined.
# CacoReady 24-well transwell plates were obtained from ADMEcell (Alameda, Calif.). The compounds were evaluated at a concentration of 5 μM from 10 mM DMSO stock solutions in duplicate (n=2). The passive permeability of the compounds tested was evaluated using Caco-2 cell monolayers along with Verapamil (25 μM) to inhibit P-gp transport proteins in the apical to basolateral (A-B) direction. The experiment was conducted in a 37° C., 5% CO2 incubator. Caco-2 culture media consisted of standard filtered DMEM, FCS 10%, L-Glutamine 1% and PenStrep 1%. Basal assay plate was prepared by adding 750 μL of transport buffer to A-B wells. A CacoReady™ plate was prepared by removing the Caco-2 media from the apical wells and replacing with fresh transport media (200 μL repeated for a total of 3 washes). Blank media (200 μL) was then replaced with diluted compound for A-B wells. To begin the incubation, the basal plate was removed from the incubator and the apical section was added on top of it. Samples (40 μL) were collected from the apical and basal compartments for time zero (t0). Samples were collected again after 120 minutes (t120) from the apical and basal compartments. All samples were diluted and prepared for bioanalysis by LC-MS/MS. The permeation coefficient (Kp, mean A to B+ Verapamil Papparent) in cm/sec was calculated as dQ (flux)/(dt×Area×concentration).
# In this assay, a Kp value less than about 5×10^−6 cm/sec is considered favorable to minimize systemic exposure and target the colon. A Kp value less than about 10×10^−6 cm/sec may also be sufficient to minimize systemic exposure and target the colon.
# Chain of JAK1 (P23458 whole entry): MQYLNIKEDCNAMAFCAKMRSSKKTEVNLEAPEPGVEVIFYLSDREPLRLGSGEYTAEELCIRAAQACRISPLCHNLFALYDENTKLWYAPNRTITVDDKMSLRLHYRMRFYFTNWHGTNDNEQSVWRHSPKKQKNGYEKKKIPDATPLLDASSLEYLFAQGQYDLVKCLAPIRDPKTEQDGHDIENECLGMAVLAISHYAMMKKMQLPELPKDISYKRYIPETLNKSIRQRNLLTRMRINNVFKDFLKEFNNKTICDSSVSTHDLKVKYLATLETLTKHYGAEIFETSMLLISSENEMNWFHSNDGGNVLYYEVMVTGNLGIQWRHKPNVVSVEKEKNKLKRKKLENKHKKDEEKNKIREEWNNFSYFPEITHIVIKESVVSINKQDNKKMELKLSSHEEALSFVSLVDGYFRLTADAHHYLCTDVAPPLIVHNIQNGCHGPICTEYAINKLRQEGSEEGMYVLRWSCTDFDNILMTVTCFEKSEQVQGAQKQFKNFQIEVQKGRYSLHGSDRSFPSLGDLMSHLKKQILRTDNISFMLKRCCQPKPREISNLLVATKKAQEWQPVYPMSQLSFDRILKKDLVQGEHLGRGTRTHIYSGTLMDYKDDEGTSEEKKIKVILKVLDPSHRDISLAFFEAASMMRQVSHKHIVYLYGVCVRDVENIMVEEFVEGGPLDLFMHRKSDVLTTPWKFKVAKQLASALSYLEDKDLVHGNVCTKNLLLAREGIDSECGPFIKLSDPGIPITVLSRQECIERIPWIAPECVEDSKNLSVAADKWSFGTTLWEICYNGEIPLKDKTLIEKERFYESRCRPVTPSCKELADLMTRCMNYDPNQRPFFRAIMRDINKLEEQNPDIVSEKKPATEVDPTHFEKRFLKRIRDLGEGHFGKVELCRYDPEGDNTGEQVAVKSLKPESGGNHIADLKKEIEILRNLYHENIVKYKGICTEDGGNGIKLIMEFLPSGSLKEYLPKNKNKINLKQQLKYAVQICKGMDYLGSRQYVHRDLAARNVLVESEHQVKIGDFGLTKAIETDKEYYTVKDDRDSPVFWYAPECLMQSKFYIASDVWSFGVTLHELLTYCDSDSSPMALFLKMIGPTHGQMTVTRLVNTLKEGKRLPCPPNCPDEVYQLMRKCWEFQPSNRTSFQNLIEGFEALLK
Structure (SMILES),JAK 1 (pKi) (JAK1),JAK 2 (pKi) (JAK2),JAK 3 (pKi) (JAK3),JAK3 (pKi)-JAK1 (pKi) (JAK3),Tyk 2 (pKi) (Tyk2),Tall-1 (pIC50) [1],Caco Kp (Caco-2 cell monolayers)
C=CC(=O)N1CC(CCn2c(=O)ccc3cnc(Nc4ccc(N5CCN(C)CC5)cn4)nc32)C1 [Example 137],E (E represents a pKi value of 7 or below (Ki of 100 nM or above)),E (E represents a pKi value of 7 or below (Ki of 100 nM or above)),B (B represents pKi value between 9 and 10 (Ki between 1 nM and 0.1 nM)),A (A represents a value of 3 or above),E (E represents a pKi value of 7 or below (Ki of 100 nM or above)),B (B represents a pC50 value between 6.7 (included) and 7.5 (IC50 between 200 nM and 32 nM)),A (A represents a value below 5×10^−6 cm/sec)
C=CC(=O)N1CCN(CCn2c(=O)ccc3cnc(Nc4ccc(N5CCN(C(=O)CCSC)CC5)cc4)nc32)[C@@H](CC)C1 [Example 192],E (E represents a pKi value of 7 or below (Ki of 100 nM or above)),E (E represents a pKi value of 7 or below (Ki of 100 nM or above)),B (B represents pKi value between 9 and 10 (Ki between 1 nM and 0.1 nM)),A (A represents a value of 3 or above),E (E represents a pKi value of 7 or below (Ki of 100 nM or above)),B (B represents a pC50 value between 6.7 (included) and 7.5 (IC50 between 200 nM and 32 nM)),C (C represents a value between 10×10^−6 and 30×10^−6 cm/sec)
C=CC(=O)N1CCN(CCn2c(=O)ccc3cnc(Nc4cnn(CC(F)F)c4)nc32)[C@@H](CC)C1 [Example 209],E (E represents a pKi value of 7 or below (Ki of 100 nM or above)),E (E represents a pKi value of 7 or below (Ki of 100 nM or above)),B (B represents pKi value between 9 and 10 (Ki between 1 nM and 0.1 nM)),A (A represents a value of 3 or above),E (E represents a pKi value of 7 or below (Ki of 100 nM or above)),B (B represents a pC50 value between 6.7 (included) and 7.5 (IC50 between 200 nM and 32 nM)),A (A represents a value below 5×10^−6 cm/sec)
C=CC(=O)N1CC(CCn2c(=O)ccc3cnc(Nc4cccc(CN5CCN(S(=O)(=O)CC#N)CC5)c4)nc32)C1 [Example 125],E (E represents a pKi value of 7 or below (Ki of 100 nM or above)),E (E represents a pKi value of 7 or below (Ki of 100 nM or above)),A (A represents a pKi value≥10 (Ki≤0.1 nM)),A (A represents a value of 3 or above),E (E represents a pKi value of 7 or below (Ki of 100 nM or above)),B (B represents a pC50 value between 6.7 (included) and 7.5 (IC50 between 200 nM and 32 nM)),B (B represents a value between 5×10^−6 and 10×10^−6 cm/sec)
C=CC(=O)N1CC(CCn2c(=O)ccc3cnc(Nc4cnn(CCN(CC)CC)c4)nc32)C1 [Example 55],E (E represents a pKi value of 7 or below (Ki of 100 nM or above)),E (E represents a pKi value of 7 or below (Ki of 100 nM or above)),B (B represents pKi value between 9 and 10 (Ki between 1 nM and 0.1 nM)),A (A represents a value of 3 or above),E (E represents a pKi value of 7 or below (Ki of 100 nM or above)),B (B represents a pC50 value between 6.7 (included) and 7.5 (IC50 between 200 nM and 32 nM)),A (A represents a value below 5×10^−6 cm/sec)
C=CC(=O)N1CC(CCn2c(=O)ccc3cnc(Nc4ccc(N5CCN(C(=O)COC)CC5)cc4)nc32)C1 [Example 70],E (E represents a pKi value of 7 or below (Ki of 100 nM or above)),E (E represents a pKi value of 7 or below (Ki of 100 nM or above)),B (B represents pKi value between 9 and 10 (Ki between 1 nM and 0.1 nM)),A (A represents a value of 3 or above),E (E represents a pKi value of 7 or below (Ki of 100 nM or above)),B (B represents a pC50 value between 6.7 (included) and 7.5 (IC50 between 200 nM and 32 nM)),A (A represents a value below 5×10^−6 cm/sec)
C=CC(=O)N1CCN(CCn2c(=O)ccc3cnc(Nc4ccc(N5CCN(C(=O)COC)CC5)cc4)nc32)[C@@H](CC)C1 [Example 186],E (E represents a pKi value of 7 or below (Ki of 100 nM or above)),E (E represents a pKi value of 7 or below (Ki of 100 nM or above)),B (B represents pKi value between 9 and 10 (Ki between 1 nM and 0.1 nM)),A (A represents a value of 3 or above),E (E represents a pKi value of 7 or below (Ki of 100 nM or above)),B (B represents a pC50 value between 6.7 (included) and 7.5 (IC50 between 200 nM and 32 nM)),A (A represents a value below 5×10^−6 cm/sec)
C=CC(=O)N1CC(CCn2c(=O)ccc3cnc(Nc4ccc(N5CCC(C)CC5)cc4)nc32)C1 [Example 142],E (E represents a pKi value of 7 or below (Ki of 100 nM or above)),E (E represents a pKi value of 7 or below (Ki of 100 nM or above)),A (A represents a pKi value≥10 (Ki≤0.1 nM)),A (A represents a value of 3 or above),E (E represents a pKi value of 7 or below (Ki of 100 nM or above)),B (B represents a pC50 value between 6.7 (included) and 7.5 (IC50 between 200 nM and 32 nM)),C (C represents a value between 10×10^−6 and 30×10^−6 cm/sec)
C=CC(=O)N1CC(CCn2c(=O)ccc3cnc(Nc4ccc(N5CCN(C)CC5)cc4F)nc32)C1 [Example 141],E (E represents a pKi value of 7 or below (Ki of 100 nM or above)),E (E represents a pKi value of 7 or below (Ki of 100 nM or above)),B (B represents pKi value between 9 and 10 (Ki between 1 nM and 0.1 nM)),A (A represents a value of 3 or above),E (E represents a pKi value of 7 or below (Ki of 100 nM or above)),B (B represents a pC50 value between 6.7 (included) and 7.5 (IC50 between 200 nM and 32 nM)),C (C represents a value between 10×10^−6 and 30×10^−6 cm/sec)
C=CC(=O)N1CC(CCn2c(=O)ccc3cnc(Nc4ccccc4)nc32)C1 [Example 18],E (E represents a pKi value of 7 or below (Ki of 100 nM or above)),E (E represents a pKi value of 7 or below (Ki of 100 nM or above)),A (A represents a pKi value≥10 (Ki≤0.1 nM)),A (A represents a value of 3 or above),E (E represents a pKi value of 7 or below (Ki of 100 nM or above)),B (B represents a pC50 value between 6.7 (included) and 7.5 (IC50 between 200 nM and 32 nM)),C (C represents a value between 10×10^−6 and 30×10^−6 cm/sec)
